Results taken from PubChem BioAssay (NCI).
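Cultured in 96-well plates, cells were exposed to test compound for 48 hours across five concentrations. Abbreviation: GI50, concentration required for 50% inhibition of growth. TGI: total growth inhibition.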

What was measured:
Assay in all cases: growth of human tumour cells (NCI), 48 h
786-0 renal = tested on: 786-0 renal
OVCAR-3 ovarian = tested on: OVCAR-3 ovarian
RPMI-8226 leukemia = tested on: RPMI-8226 leukemia
ACHN renal = tested on: ACHN renal
UACC-62 melanoma = tested on: UACC-62 melanoma
CCRF-CEM leukemia = tested on: CCRF-CEM leukemia
SN12C renal = tested on: SN12C renal
IGROV1 ovarian = tested on: IGROV1 ovarian
HL-60(TB) leukemia = tested on: HL-60(TB) leukemia
OVCAR-8 ovarian = tested on: OVCAR-8 ovarian

SMILES | TGI (786-0 renal) [µM] | TGI (OVCAR-3 ovarian) [µM] | TGI (RPMI-8226 leukemia) [µM] | TGI (ACHN renal) [µM] | TGI (UACC-62 melanoma) [µM] | TGI (CCRF-CEM leukemia) [µM] | TGI (SN12C renal) [µM] | TGI (IGROV1 ovarian) [µM] | TGI (HL-60(TB) leukemia) [µM] | TGI (OVCAR-8 ovarian) [µM] | GI50 (786-0 renal) [µM] | GI50 (OVCAR-3 ovarian) [µM] | GI50 (RPMI-8226 leukemia) [µM] | GI50 (ACHN renal) [µM] | GI50 (UACC-62 melanoma) [µM] | GI50 (CCRF-CEM leukemia) [µM] | GI50 (SN12C renal) [µM] | GI50 (IGROV1 ovarian) [µM] | GI50 (HL-60(TB) leukemia) [µM] | GI50 (OVCAR-8 ovarian) [µM]
Cc1ccc(NC(=O)/C(=N\Nc2ccc([N+](=O)[O-])cc2[N+](=O)[O-])C2C(=O)NC(=O)NC2=O)cc1 | > 100 | > 100 | > 100 | > 100 | 97.6 | > 100 | > 100 | > 100 | > 100 | > 100 |  |  |  |  |  |  |  |  |  | 
CO/N=C(\C)c1ccc(Nc2cc(-c3ccccc3)nc3c(O)cccc23)cc1 | 35.2 | 32.4 | 37 | 34 | 28.8 | 22.6 | 30.6 | 45.2 | > 100 | 33.9 | 16.3 | 16.4 | 15.8 | 17.8 | 14.6 | 6.64 | 16 | 13.5 | 48.4 | 13.6
C[C@H]1[C@H](C)CC[C@]2(C(=O)O)CC[C@]3(C)C(=CC[C@@H]4[C@@]5(C)C/C(=C/c6cccnc6)[C@H](O)C(C)(C)[C@@H]5CC[C@]43C)[C@H]12 | > 100 | 31.1 | 41.5 | > 100 | 35 | 40.8 | 97.3 | > 100 | 32.6 | > 100 | 25.9 | 13.5 | 6.03 | 10.2 | 11.7 | 6.43 | 18.1 | 26.4 | 9.83 | 20.5
CCCCCCCCCc1cc(=O)c2ccc(O)cc2o1 | > 100 | > 100 | > 100 | > 100 | > 100 | 55.2 | > 100 | > 100 | 38.2 | > 100 |  |  |  |  |  |  |  |  |  | 
Clc1nc(Cl)c2ncn(Cc3ccc(COc4cccc(OCc5ccc(Cn6cnc7c(Cl)nc(Cl)nc76)cc5)c4)cc3)c2n1 | > 100 | 56.6 | > 100 | > 100 | > 100 | > 100 | > 100 | > 100 | 34.3 | > 100 | 36.2 | 10.7 | 9.5 | 45.4 | 34.7 | 17.2 | 92.4 | 69.4 | 13.5 | 33.6
COc1cc([C@@H]2c3cc4c(cc3[C@@H](NC(=O)c3ccccc3)C3COC(=O)[C@@H]32)OCO4)cc(OC)c1O (stereo not given in full) | 21.9 | 56.7 | 21.8 | 5.55 | 11.6 | > 100 | 9.81 | 25.7 | 9.44 | 37.7 |  |  |  |  |  |  |  |  |  | 
COc1c(N2CCN(CN3C(=O)C(=Nc4ccc(S(=O)(=O)Nc5ncccn5)cc4)c4ccccc43)C(C)C2)c(F)cc2c(=O)c(C(=O)O)cn(C3CC3)c12 (stereo not given) | > 50 | > 50 | > 50 | > 50 | > 50 | > 50 | > 50 | > 50 | > 50 | > 50 | > 50 | > 50 | 28.7 | > 50 | 36.9 | 44.4 | > 50 | 19.2 | > 50 | 21.4
